# From EP2433624B1, “Use of buparvaquone for controlling mites parasitising honeybees” (Bimeda International Pharmaceuticals Limited, priority 2010, dated 2012)
# Values joined by “and” are separate entries in the source; they are usually repeats but may differ in a detail not shown here. Identical values can stand only once. Like-named read-outs stand apart in the source and are kept apart here.
# Experiments:
# [1] = tested on: Varroa mites; experiment: Efficacy of BPQ B against Varroa mites on honeybees fed treated sucrose solution; type: in vivo
# Method: (§1) Example 6 - Toxicity of BPQ B to Varroa mites on honeybees when fed treated sucrose solution
# To estimate the percentage efficacy of BPQ at different concentrations in sucrose solution
# (§2) A total of 20 newly emerged Varroa infested bees were placed in hoarding cages. The cages were prepared as described in Section 1.0, except that the air vents were reduced in size using parafilm to prevent the Varroa mites escaping during the test period. The mean(±se) number of mites per 20 bees was estimated prior to commencement of the experiment and an additional 5 mites per cage were added. (mean±se = 10.6±0.33). This was carried out by collecting adult female mite from drone pupae, placing them in an eppendorf tube and then releasing them into the cages.
# (§3) The treatment solution was made by dissolving BPQ B in solvent, followed by two aqueous serial dilutions producing a concentration of 500µg/mL and 5 µg/mL. From the latter, further serial dilutions were carried with sucrose solution producing the following concentrations: • 0.5µg/mL. (C1-C3) • 0.05µg/mL. (D1-D3) • 0.005µg/mL. (E1-E3) • 0.0005µg/mL. (F1-F3) • 0.00005µg/mL (G1-G3)
# (§4) Three replicates were established at each concentration plus a control group which were only fed sugar syrup. All cages were placed in the incubator at 32°C and monitored on a daily basis for the number of mites and number of bees knocked down. At the end of five day treatment period, the percentage efficacy of the treatment was estimated by treating bees in all cages with Apistan (Trade Mark of Vita (Europe) Ltd. Apistan contains fluvalinate which is a synthetic pyrethroid. % efficacy = mites knocked from treatment/total mites (treatment+Apistan)*100 [formula]
# [2] = tested on: honeybee larvae; experiment: Toxicity of BPQ B to honeybee larvae when fed treated syrup; type: in vivo, Apis mellifera; settings: for Sealed cells / Young bees emerged: 40 cells
# Source text: (§5) To measure the effect of treatment on developing larvae when fed syrup treated with BPQ powder, BPQ B, dissolved in the solvent (N-methyl pyrollidone) and diluted in an aqueous solution.
# (§6) Apidae boxes were used to raise young queens and when virgin queens started to lay an area 6cm x 3cm were marked and missing cells were noted. The miniature colony was fed treated syrup, which was made by dissolving BPQ B powder in solvent, followed by serial dilutions using a sucrose solution (2 parts sugar: 1 part water). The concentrations administered are given below. Two replicates were carried out for the product, while 1 colony (apidae) was used for each of the solvent concentrations.
# [3] = as above; type: in vivo, Apis mellifera; settings: honeybee, in vivo, po, read-out: % Emergence
# Source text: as §5, §6
# [4] = tested on: honeybees; experiment: Bee survival in the test with BPQ B fed in sucrose solution; type: in vivo, Apis mellifera
# Method: as §1, §2, §3
# Three replicates were established at each concentration plus a control group which were only fed sugar syrup. All cages were placed in the incubator at 32°C and monitored on a daily basis for the number of mites and number of bees knocked down. […]
# [5] = tested on: Varroa mites; experiment: Efficacy of BPQ B against Varroa mites on honeybees sprayed with an aqueous solution; type: in vivo; settings: sprayed as an aqueous solution, preliminary
# Method: (§7) Example 7 - Toxicity of BPQ B to Varroa mites on honeybees when sprayed with an aqueous solution of the active ingredient
# To estimate the percentage efficacy of BPQ B at different concentrations when sprayed as an aqueous solution onto adult bees
# (§8) A total of 20 newly emerged Varroa infested bees were placed in hoarding cages. The cages were prepared as described in Section 1.0, except that the air vents were reduced in size using parafilm to prevent the Varroa mites escaping during the test period. The mean(±se) number of mites per 20 bees was estimated prior to commencement and an additional 10 mites per cage were added. Mites were collected and introduced as described above. The treatment solution was made by dissolving BPQ B in solvent, followed by two aqueous serial dilutions producing a concentration of 500µg/mL and 5µg/mL. From the latter, further serial dilutions were carried in water producing the following concentrations: • 0.5µg/mL. (C1-C3) • 0.05µg/mL. (D1-D3) • 0.005µg/mL. (E1-E3) • 0.0005µg/mL. (F1-F3) • 0.00005µg/mL (G1-G3)
# as §4, with “sprayed with water only. All test groups were” for “only”, “10mL of 1:1 sucrose:water solution and” for “sugar syrup. All cages were”, “Apistan.” for “Apistan (Trade Mark of Vita (Europe) Ltd. Apistan contains fluvalinate which is a synthetic pyrethroid.”
# [6] = tested on: honeybees; experiment: Survival of bees sprayed with aqueous solutions of BPQ; type: in vivo, Apis mellifera; settings: sprayed as an aqueous solution
# Method: as §7, §8
# as §4, with “sprayed with water only. All test groups were” for “only”, “10mL of 1:1 sucrose:water solution and” for “sugar syrup. All cages were”, “Apistan.” for “Apistan (Trade Mark of Vita (Europe) Ltd. Apistan contains fluvalinate which is a synthetic pyrethroid.”
# [7] = 0.00005µg/mL (g1-g3) in sucrose solution fed to 20 infested bees per cage
# [8] = 0.00005µg/mL (g1) in sucrose fed to colony
# [9] = 0.0005µg/mL (f1-f2) in sucrose fed to colony
# [10] = 0.005µg/mL (e1-e2) in sucrose fed to colony
# [11] = 0.05µg/mL (d1-d2) in sucrose fed to colony
# [12] = 0.5µg/mL (c1-c2) in sucrose fed to colony
structure (smiles),measurement,setting,value
"CC(C)(C)[C@H]1CC[C@H](CC2=C(O)C(=O)c3ccccc3C2=O)CC1 [BPQ B, buparvaquone]","daily Varroa mite drop down, Day 4",[1]; [7],0
same,"daily Varroa mite drop down, Day 6",[1]; [7],0
same,"daily Varroa mite drop down, Day 2",[1]; 0.0005µg/mL (f1-f3) in sucrose solution fed to 20 infested bees per cage,7 and 9
same,effective in Varroa knockdown,"[1]; 0.0005µg/mL, fed in sugar solution",> 80%
same,"daily Varroa mite drop down, Day 5",[1]; 0.05µg/mL (d1-d3) in sucrose solution fed to 20 infested bees per cage,1
same,"daily Varroa mite drop down, Day 6",[1]; 0.5µg/mL (c1-c3) in sucrose solution fed to 20 infested bees per cage,1 and 2
same,maximum efficacy,"[1]; fed in a sucrose solution, treatment f (0.0005µg/mL), 5 day treatment",approximately 82%
same,minimum efficacy,"[1]; fed in a sucrose solution, treatment g (0.00005µg/mL), 5 day treatment",43.8%
same,Sealed cells,[2]; [8],30
same,Young bees emerged,[2]; [8],30
same,% Emergence,[2]; [9],87.5%
same,Sealed cells,[2]; [9],32 and 30
same,Young bees emerged,[2]; [9],26 and 28
same,% Emergence,[2]; [10],86.5%
same,Sealed cells,[2]; [10],31 and 37
same,Young bees emerged,[2]; [10],28 and 32
same,% Emergence,[2]; [11],69.7%
same,Sealed cells,[2]; [11],30 and 29
same,Young bees emerged,[2]; [11],27 and 23
same,% Emergence,[2]; [12],93.9%
same,Sealed cells,[2]; [12],32 and 33
same,Young bees emerged,[2]; [12],30 and 31
same,toxicity for bee larvae,"[2]; powder dissolved in NMP, diluted in water then sugar solution, any concentration",No toxicity
same,survival,[3]; [8],96.8%
same,survival,[3]; [9],70.3%
same,survival,[3]; [10],82.4%
same,survival,[3]; [11],81.8%
same,survival,[3]; [12],85.7%
same,bee survival,"[4]; fed in a sucrose solution, day 5",no negative effects
same,toxicity for bees,"[4]; powder dissolved in NMP, diluted in water then sugar solution, tested over 5 days, any concentration",No toxicity
same,mean minimum efficacy,[5]; treatment d (0.05µg/mL),28.4%
same,mean maximum efficacy,[5]; treatment g (0.00005µg/mL),46.2%
same,percentage efficacy against the Varroa mite,[5],low
same,toxicity to bees,[6],very low
